# Results published in ChEMBL document CHEMBL1133900, “Improved synthesis and evaluation of 17-substituted aminoalkylgeldanamycin derivatives applicable to drug delivery systems” (Bioorg Med Chem Lett, 2001).
# Tested on: A2780
# Assay: Compound was evaluated for antiproliferative activity against human ovarian carcinoma cell line A2780.
# Assay type: functional, cell-based
row,IC50 [nM],SMILES
1,3.4,COC1=C2C[C@@H](C)C[C@H](OC)[C@H](O)[C@@H](C)/C=C(\C)[C@H](OC(N)=O)[C@@H](OC)/C=C\C=C(/C)C(=O)NC(=CC1=O)C2=O [GELDANAMYCIN]
2,136,CO[C@H]1/C=C\C=C(/C)C(=O)NC2=CC(=O)C(NCCCN)=C(C[C@@H](C)C[C@H](OC)[C@H](O)[C@@H](C)/C=C(\C)[C@@H]1OC(N)=O)C2=O
3,234,CO[C@H]1/C=C\C=C(/C)C(=O)NC2=CC(=O)C(NCC(O)CN)=C(C[C@@H](C)C[C@H](OC)[C@H](O)[C@@H](C)/C=C(\C)[C@@H]1OC(N)=O)C2=O (stereo partly drawn)
